Measured values reported in patent US11234943B2, “Use of reservatrol for the treatment of non-alcoholic fatty liver disease (NAFLD)” (priority 2016, dated 2022).
“And” between values parts separate entries of the source, which are not always exact repeats. Identical values can stand only once.

Tests used:
[1] = system: patients with NAFLD; assay: Blood tests in 6-month study of NAFLD patients given resveratrol micronized formulation; type: in vivo, human; set-up: unit not given here
Description: In this study. 50 mg or 200 mg RSV daily were supplemented to the standard treatment of 44 patients with NAFLD for a period of 6 months and the therapeutic efficacy of RSV was investigated. All patients who participated in this process were volunteers and they have provided written consents as well filled out all the required documents. The patients were selected after they were firstly diagnosed with non-alcoholic fatty liver disease. The primary inclusion criterion was evidence of tatty liver on ultrasonography (LS), which is the most commonly, used imaging technique with remarkable sensitivity. The US findings in non-alcoholic fatty liver disease are:
Participants underwent clinical examination, electrocardiogram and abdominal ultrasound. Also, blood tests were carried out and the following parameters were measured: serum glutamic pyruvic transaminase (SGPT), serum glutamic oxaloacetic transaminase (SGOT), Alkaline phosphatase (ALP), gamma-glutamyl transpeptidase (gGT), glucose, total cholesterol levels, high-density lipoprotein (HDL), low-density lipoprotein (LDL), triglycerides (TG), insulin, insulin resistance, liver value, liver depth, kidney value, kidney depth and difference liver-kidney values.
(§1) Then, the patients were divided into two groups (randomly assigned) according to the treatment given to them. 22 patients were given treatment 50 mg RSV micronized formulation, Evelor capsules once daily, (Group A) and 22 patients were given treatment 200 mg RSV micronized formulation, Evelor capsules, once daily, (Group B). The observation period lasted for 6 months. There was a clinical examination, blood tests and an abdominal ultrasound at the beginning of the study (time 1) and in 6 months (time 2). All patients were on low fat diet and they were being followed up by nutritionist.
Two-way ANOVA with interaction (time and group) was used to test whether there are differences among dose levels, time levels and possible interaction among them. However, no significant interactions were discovered and standard two-way ANOVA was used without interactions. Moreover, an independent t-test was conducted to examine whether there were any differences between the values of physiological parameters at the beginning and the end of the study. A p-value<0.001 was considered to indicate a strongly statistically significant difference. The statistical program used was R 3.2.1.

[2] = system: patients with NAFLD; assay: Quantitative ultrasound liver/kidney echo measurement (liver fat), hepatic/renal value; type: in vivo, human; set-up: key to Difference (Liver Value − Kidney Value): hepatic minus renal cortex mean gray scale (US hepatic/renal value); key to Liver Value / Kidney Value: mean gray scale value of pixels within the ROI (echo intensity)
Excerpt: A GE Log IQ5 expert Ultrasound Machine equipped with Ultrasound Transducer Probe (GE 3.5C model 2050357) The equipment can measure the Echo Level (EL) at specific areas and depths. EL measures the mean intensity of pixels within a user defined area (region of interest). Raw data provides the average sum (intensity per pixel)/pixels. The ultrasound depicts on screen the area (in cm^2), mean (intensity dB) and standard deviation (dispersion) Phantom Model 040GSE (CIRS-Multi Purpose, Multi Tissue u/s Phantom) to calibrate the Log IQ. The specific phantom simulates the human liver and kidney organs and serves for calibration.
Regarding the parameters “liver/kidney value” and “liver/kidney depth” we used the same methodology used by Ming-Feng Xia et al., Standardized Ultrasound Hepatic/Renal Ratio and Hepatic Attenuation Rate to Quantify Liver Fat Content: An Improvement Method 10.1038/oby.2011.302.
Ultrasound studies were performed by an experienced radiologist who was unaware of the patient's clinical details and laboratory findings. All the instrument settings, including gain and depth were fixed for each measurement. For assessment of ultrasound hepatic/renal echo value, ultrasound images with both liver and right kidney clearly visualized were obtained in the sagittal liver/right kidney view in the lateral position. A region of interest (ROI) was carefully selected excluding blood vessels, bile ducts and other focal hypoechoic or hyperechoic regions. Another ROI was identified in the right renal cortex with no large vessels, renal sinus or medulla. To avoid the interference of depth-depended echo-intensity attenuation and the borderline echo distorting effects, the boundary between liver and right kidney area should be placed near the center of the image, and the liver and right kidney ROIs were selected at the same depth of the ultrasound images. The gray scale mean value of the pixels within the two ROIs was used as measurement of echo intensity then we subtracted the average hepatic gray scale by the average renal cortex gray scale to calculate the US hepatic/renal value.
Standardization of ultrasound quantitative parameters was performed using an abdominal phantom.
Attenuation measurements were taken at 2 depths, at the Regions of Interest (ROI) xxcm (liver) and yycm (kidney). Attenuation was calculated by subtracting the EL (liver)−EL (kidney)=Hepato-Renal Index Difference.
In sagittal liver/right kidney view, a region of interest (ROI) of 1.5×1.5 cm (1,296 pixels) in the liver parenchyma was selected. The ROI had to be as uniform as possible, excluding blood vessels, bile ducts, and other focal hypo/hyper-echogenicity. Another ROI of 0.5×0.5 cm (144 pixels) was identified in the right renal cortex with no large vessels, renal sinus or medulla. To avoid the interference of depth-depended echo-intensity attenuation and the borderline echo distorting effects, the boundary between liver and right kidney area should be placed near the center of the image, and the liver and right kidney ROIs were selected at the same depth of the ultrasound images. The gray scale mean value of the pixels within the two ROIs was used as measurement of echo intensity. Then we subtracted the average hepatic gray scale by the average renal cortex gray scale to calculate the US hepatic/renal value.
To standardize the measured values of US H/R value and hepatic echo-intensity attenuation rate among different ultrasound machines, a 3D abdominal phantom, containing mimic abdominal organs, was used for standardization in this research.
Then, the patients were divided into two groups (randomly assigned) according to the treatment given to them. 22 patients were given treatment 50 mg RSV micronized formulation, Evelor capsules once daily, (Group A) and 22 patients were given treatment 200 mg RSV micronized formulation, Evelor capsules, once daily, (Group B). The observation period lasted for 6 months. […]

[3] = system: patients with NAFLD; assay: Adverse reactions during the 6-month study; type: in vivo, human; settings: 50 mg or 200 mg once daily, 6 months
Description: Quantitative fat measurement, with ultrasound on the liver and kidney, were carried out. There was an initial measurement (time 1) and one after six months (time 2). […] As will be apparent, the results were highly positive, see the difference (Liver value Kidney Value) which is decreased during the time, even 2.5 years after the end of the study.
as §1

[4] = system: subjects with non-alcoholic fatty liver disease; settings: two 150 mg capsules twice daily for three months, cited from earlier work
[5] = system: NAFLD patients; settings: meta-analysis of four trials, 156 patients, cited from earlier work
[6] = Group A, 50 mg once daily, mean at time 1 (beginning of study)
[7] = Group A, 50 mg once daily, mean at time 2 (6 months)
[8] = Group B, 200 mg once daily, mean at time 1 (beginning of study)
[9] = Group B, 200 mg once daily, mean at time 2 (6 months)
[10] = individual patients of Group A (50 mg), first ultrasound, 0 month
[11] = individual patients of Group A (50 mg), fourth ultrasound, 2.5 years from the end of the study
[12] = individual patients of Group A (50 mg), second ultrasound, 6 months
[13] = individual patients of Group A (50 mg), third ultrasound, 6 months after the end of the study
[14] = individual patients of Group B (200 mg), first ultrasound, 0 month
[15] = individual patients of Group B (200 mg), fourth ultrasound, 2.5 years from the end of the study
[16] = individual patients of Group B (200 mg), second ultrasound, 6 months
[17] = individual patients of Group B (200 mg), third ultrasound, 6 months after the end of the study

Oc1ccc(/C=C/c2cc(O)cc(O)c2)cc1 [Resveratrol, resveratrol]
ALP [1, 6]: 63.63 | CH [1, 6]: 194.50 | GLU [1, 6]: 105.95 | HDL [1, 6]: 48.60 | Insulin [1, 6]: 13.58 | Insulin Resistance [1, 6]: 1405.81 | LDL [1, 6]: 119.45 | SGOT [1, 6]: 24.95 | SGPT [1, 6]: 36.09 | TG [1, 6]: 132.50 | gGT [1, 6]: 30.95 | ALP [1, 7]: 59.23 | CH [1, 7]: 185.67 | GLU [1, 7]: 96.57 | HDL [1, 7]: 47.67 | Insulin [1, 7]: 12.69 | Insulin Resistance [1, 7]: 1226.04 | LDL [1, 7]: 116.19 | SGOT [1, 7]: 26.33 | SGPT [1, 7]: 37.24 | TG [1, 7]: 109.76 | gGT [1, 7]: 27.00 | ALP [1, 8]: 74.50 | CH [1, 8]: 194.27 | GLU [1, 8]: 121.18 | HDL [1, 8]: 41.14 | Insulin [1, 8]: 12.62 | Insulin Resistance [1, 8]: 1541.04 | LDL [1, 8]: 118.75 | SGOT [1, 8]: 32.81 | SGPT [1, 8]: 47.05 | TG [1, 8]: 205.13 | gGT [1, 8]: 29.20 | ALP [1, 9]: 71.20 | CH [1, 9]: 181.15 | GLU [1, 9]: 112.50 | HDL [1, 9]: 41.70 | Insulin [1, 9]: 13.01 | Insulin Resistance [1, 9]: 1489.52 | LDL [1, 9]: 105.95 | SGOT [1, 9]: 30.90 | SGPT [1, 9]: 41.70 | TG [1, 9]: 167.80 | gGT [1, 9]: 25.35 | Difference L − K value [2, 6]: 22.71 | Kidney Value [2, 6]: 32.49 | Liver Value [2, 6]: 55.20 | Difference L − K value [2, 7]: 17.00 | Kidney Value [2, 7]: 28.42 | Liver Value [2, 7]: 45.42 | Difference L − K value [2, 8]: 26.46 | Kidney Value [2, 8]: 32.30 | Liver Value [2, 8]: 58.77 | Difference L − K value [2, 9]: 18.115 | Kidney Value [2, 9]: 25.21 | Liver Value [2, 9]: 43.33 | liver fat as evidenced by ultrasound measurements ([2]; groups A and B, end of the study): strongly statistically significant reduction | Difference (Liver Value − Kidney Value) [2, 10]: 14.6 and 32.9 and 20.1 and 23.3 and 43.7 and 34.3 | Kidney Value [2, 10]: 30.4 and 35.0 and 25.3 and 32.6 and 52.4 and 7.0 | Liver Value [2, 10]: 45.0 and 67.9 and 45.4 and 55.9 and 96.1 and 41.3 | Difference (Liver Value − Kidney Value) [2, 11]: 5.5 and 9.8 | Kidney Value [2, 11]: 75.0 and 75.2 | Liver Value [2, 11]: 80.5 and 85.0 | Difference (Liver Value − Kidney Value) [2, 12]: 12.8 and 29.5 and 11.8 and 19 and 18.5 and 20.9 | Kidney Value [2, 12]: 29.2 and 26.4 and 20.1 and 30.8 and 26.5 and 21.0 | Liver Value [2, 12]: 42.0 and 55.9 and 31.9 and 49.8 and 45.0 and 41.9 | Difference (Liver Value − Kidney Value) [2, 13]: 16.7 and 10.3 and 24.4 and 1.6 and 17.6 and 9.4 | Kidney Value [2, 13]: 81.1 and 60.0 and 64.5 and 57.3 and 67.6 and 48.1 | Liver Value [2, 13]: 97.8 and 70.3 and 88.9 and 58.9 and 85.2 and 57.5 | Difference (Liver Value − Kidney Value) [2, 14]: 28.2 and 35.5 and 32.3 and 47.3 and 24.1 and 20.5 and 41 and 18.8 | Kidney Value [2, 14]: 32.2 and 26.5 and 23.6 and 39.5 and 22.7 and 14.2 and 28.6 and 33.3 | Liver Value [2, 14]: 60.4 and 62.0 and 55.9 and 86.8 and 46.8 and 34.7 and 69.6 and 52.1 | Difference (Liver Value − Kidney Value) [2, 15]: 7.9 and 5 and 17.3 | Kidney Value [2, 15]: 31.2 and 41.0 and 42.8 | Liver Value [2, 15]: 39.1 and 46.0 and 60.1 | Difference (Liver Value − Kidney Value) [2, 16]: 14.8 and 23.9 and 19 and 34.2 and 22.2 and 7.4 and 33.5 and 16.4 | Kidney Value [2, 16]: 33.0 and 22.1 and 31.1 and 18.9 and 14.4 and 42.4 and 17.0 and 16.8 | Liver Value [2, 16]: 47.8 and 46.0 and 50.1 and 53.1 and 36.6 and 49.8 and 50.5 and 33.2 | Difference (Liver Value − Kidney Value) [2, 17]: 13.2 and 8.9 and 22.1 and 10 and 18.3 and 13.7 and 6 and 16.8 | Kidney Value [2, 17]: 61.7 and 53.0 and 55.2 and 84.3 and 55.9 and 71.5 and 75.3 and 40.4 | Liver Value [2, 17]: 74.9 and 61.9 and 77.3 and 94.3 and 74.2 and 85.2 and 81.3 and 57.2 | adverse reactions (side effects) [3]: No adverse reactions (side effects) were noted | alanine aminotransferase ([4]; compared with placebo group): significantly decreased | aspartate aminotransferase ([4]; compared with placebo group): significantly decreased | glucose ([4]; compared with placebo group): significantly decreased | homeostasis model assessment insulin resistance index ([4]; compared with placebo group): significantly decreased | low-density lipoprotein cholesterol ([4]; compared with placebo group): significantly decreased | total cholesterol ([4]; compared with placebo group): significantly decreased | adiponectin level ([4]; resveratrol group): elevation | level of TNF-α ([4]; resveratrol group): significant reductions | level of cytokeratin 18 fragment ([4]; resveratrol group): significant reductions | level of fibroblast growth factor ([4]; resveratrol group): significant reductions | total cholesterol, mean difference (MD) vs placebo ([5]; 95% CI: 0.18, 0.80, higher in resveratrol groups): 0.49 | low-density lipoprotein, mean difference (MD) vs placebo ([5]; 95% CI: 0.21, 0.74, higher in resveratrol groups): 0.47 | effects on attenuating NAFLD [5]: negligible effects
